According to patent US5130143A, “Use of a low affinity-heparin fraction in conjunction with t-PA for thrombolytic therapy” (The Research Foundation of State University of New York, priority 1988, dated 1992):

Target: T1, t-PA (Homo sapiens, UniProt P00750)
T1 construct: The t-PA purified from human melanoma (Bowes) cell culture; host or cells: Bowes human melanoma cell culture (purified t-PA)
Assay: Amidolytic plasmin assay: activation of plasminogen by t-PA (S-2251 substrate)
Format: biochemical
Details: no fibrinogen fragments; 0.09 nM t-PA, 0.42 μM plasminogen, 25° C.
Procedure: The assay defects lysis of the amide bond of plasminogen in determining their "amidolytic plasmin activity."
The ability of unfractionated HMW-heparin to stimulate amidolytic plasmin activity of a mixture of Lys-plasminogen or Glu-plasminogen and t-PA was measured according to the protocol, previously published by the inventors herein in Biochemistry, 25, 4033 (1986) (hereinafter "the Biochemistry Paper").
To a buffered solution of 200 ul of 0.1M Tris-HCl, pH 8.1, 0.1% (V/V) Tween 80, 0.3 mM chromogenic plasmin substrate H-D-Val-Leu-Lys-pNA (S-2251, Kabi, Sweden) was added. To this mixture, HMW-heparin fractions (the Ca and Na salts, respectively) in concentrations ranging from 0 to 25 units/ml and 0.42 μM Glu- or Lys- plasminogen were added. […]
The solutions were incubated in microliter plates at 25° C. The change in absorbance (ΔA) at 405 nm was measured against blanks without t-PA in a Bio-Tek model EL-308 microplate reader.
It should be noted that plasmin activity was actually being measured in this assay and that the plasmin concentration was increasing as a function of time due to the action of the plasminogen activators on plasminogen. Thus, plots of absorbance vs. time are parabolic, whereas plots of absorbance vs. time squared are linear. Therefore, the slopes of plots of absorbance vs. time squared were used as a measure of the rate (VO) of plasmin generation. […]

T1 sequence (P00750 36-562): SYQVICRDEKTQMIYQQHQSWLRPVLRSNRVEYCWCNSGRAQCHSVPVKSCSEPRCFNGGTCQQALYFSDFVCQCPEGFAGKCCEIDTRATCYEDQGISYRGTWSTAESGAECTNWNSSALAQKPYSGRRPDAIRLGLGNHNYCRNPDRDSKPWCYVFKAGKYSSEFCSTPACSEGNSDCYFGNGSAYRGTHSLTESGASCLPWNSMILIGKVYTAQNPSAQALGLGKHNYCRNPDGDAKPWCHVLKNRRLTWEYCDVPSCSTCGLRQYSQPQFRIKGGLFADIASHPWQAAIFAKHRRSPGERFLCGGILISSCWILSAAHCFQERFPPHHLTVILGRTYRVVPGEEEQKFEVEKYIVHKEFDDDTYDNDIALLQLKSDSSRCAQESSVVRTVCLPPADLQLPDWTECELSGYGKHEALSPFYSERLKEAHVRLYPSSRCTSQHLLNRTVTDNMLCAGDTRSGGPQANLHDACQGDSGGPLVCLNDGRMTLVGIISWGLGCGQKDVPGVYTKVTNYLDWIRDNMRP

## [Cl-].[Na+] [NaCl]
  effect on amidolytic plasmin activity (plasmin generation) of t-PA-plasminogen mixture: did not cause a marked decrease
